Experimental data from PMC7063992, “Opossum Cathelicidins Exhibit Antimicrobial Activity Against a Broad Spectrum of Pathogens Including West Nile Virus” (Frontiers in Immunology, 2020).
Where two headings read alike, the source gives them in different places.

Assays:
MCF7 = experiment: Mammalian cell cytotoxicity, WST-1; format: cell-based, human; conditions: positive control for complete cell lysis, concentration not given
Protocol: (§1) Two mammalian cell lines, including human embryonic kidney cells (HEK293T) and human breast cancer cells (MCF7) were cultured in Dulbecco’s modified Eagle’s medium (DMEM; Hyclone^TM, Logan, UT, United States) supplemented with 10% FBS (Hyclone^TM) and 1% penicillin/streptomycin (Hyclone^TM) and incubated at 37°C and 5% CO2 up to 80% confluence. Cellular adherence to the substratum was disrupted using Accutase (Innovative Cell Technologies, San Diego, CA, United States). In total, 1 × 10^4 to 4 × 10^4 cells in each well of a 96-well plate containing 8, 16, 32, and 64 μg/mL of ModoCath peptides were incubated for 24 h at 37°C and 5% CO2. Additionally, HEK293T cells were incubated in the FBS-free medium. Triton X 100 (Sigma Aldrich) was used as a positive control for complete cell lysis, and untreated cells were used as the negative control. After incubation, the medium was removed from the wells, and 10 μL of coloring solution (Cell Proliferation Reagent WST-1^TM; Sigma Aldrich) and 100 μL of DMEM (Hyclone^TM) were added to the wells in accordance with the manufacturer’s protocol. Absorbance was measured for each well at 440 nm (peptide-treated and control) and 650 nm (background) and recorded as the OD, using a microplate reader (xMark^TM spectrophotometer; Bio-Rad). Cell viability was calculated using the following equation:
(§2) (1) CellViability(%)=100×(ODpeptide-ODbackground)/(ODnegative-ODbackground)
(§3) All experiments were performed in triplicate.

HEK293T = experiment: Mammalian cell cytotoxicity, WST-1; format: cell-based, human; conditions: positive control for complete cell lysis, concentration not given
Protocol: as §1, §2, §3

[1] = system: Human primary keratinocytes; experiment: Viability of keratinocytes, XTT; format: cell-based; conditions: positive control, concentration not given
Text: The Ethics Committee of the Poitiers Hospital approved the use of human skin samples for research studies. All subjects provided written informed consent in accordance with the tenets of the Declaration of Helsinki. Normal abdominal or breast skin samples were obtained from patients undergoing plastic surgery and thoroughly washed with PBS free of calcium and magnesium (PBS; Gibco, Thermo Fisher Scientific, Waltham, MA, United States) after fat removal. The skin samples were minced into fragments of approximately 125 mm^2, using scalpel blades. Skin samples were incubated overnight at 4°C in a dispase solution (25 U/mL; Life Technologies, Carlsbad, CA, United States). Epidermal sheets were removed from the dermis, and keratinocytes were dissociated via trypsin digestion (trypsin-EDTA; Gibco) for 15 min at 37°C. The cell suspension was then filtered through a 280-μm sterile filter. DMEM (Gibco) supplemented with 10% (vol/vol) of FBS (Gibco) was added, and the suspension was centrifuged at 300 × g and 25°C for 10 min. Keratinocytes were seeded at a density of 10^7 cells in 75-cm^2 tissue culture flask in keratinocyte-serum free medium (K-SFM; Invitrogen, Carlsbad, CA, United States) supplemented with bovine pituitary extract (25 μg/mL; Invitrogen) and recombinant epidermal growth factor (EGF) (0.25 ng/mL; Invitrogen). The cultures were incubated at 37°C in a humidified atmosphere with 5% CO2 until 80% confluence and then stored frozen in liquid nitrogen until use. Finally, keratinocytes were seeded in sterile 24-well culture plates at 10^5 cells/well in K-SFM supplemented with bovine pituitary extract and EGF and cultured to 80% confluence. Cells were then starved overnight in K-SFM alone before stimulation.
Primary keratinocytes were cultured in 96-well plates at 4 × 10^4 cells per well in 0.1 mL K-SFM (Invitrogen) up to 80% confluence before being treated with various concentrations of ModoCath peptides for 24 h. Cell viability was assessed using the cell proliferation kit II (XTT; Roche, Basel, Switzerland) in accordance with the manufacturer’s protocol. The XTT labeling mixture was added after 24 h of incubation in the absence or presence of peptides at the indicated concentrations.

[2] = system: Escherichia coli ATCC 25922; experiment: microbe, parasite or virus in culture; format: cell-based; conditions: E. coli ATCC 25922, MHB, 10^5 CFU/well, 37°C 6 h + 2 h with coloring reagent, OD 450 nm, triplicate
Protocol: (§4) Peptides corresponding to the predicted antimicrobial regions of ModoCath1 (ΔModoCath1, N-VKRTKRGARRGL […]-C), ModoCath5 (ΔModoCath5, N-[…]-C), ModoCath6 (ΔModoCath6, N-[…]-C) and PMAP36 (N-[…] PLGCG-C) were synthesized via solid-phase peptide synthesis and purified via high-performance liquid chromatography using a commercial service (GenScript, Piscataway Township, NJ, United States). The MIC of synthesized peptides was determined against a panel of bacteria comprising 3 gram-positive strains, Staphylococcus aureus ATCC 6538 (ATCC, Manassas, VA, United States), Bacillus cereus ATCC 10876, and Enterococcus faecalis ATCC 29212, and 3 gram-negative strains, Escherichia coli ATCC 25922, Pseudomonas aeruginosa ATCC 27853, and Salmonella typhimurium ATCC 14028. Ampicillin (Sigma Aldrich, St. Louis, MO, United States) and gentamicin sulfate (Sigma Aldrich) were used as controls for antimicrobial activity. The MIC was determined using a colorimetric method specified by the Microbial Viability Assay Kit-WST (Dojindo, Kumamoto, Japan) in accordance with the manufacturer’s protocol and the Clinical and Laboratory Standards Institute (CLSI) guidelines (2018). Briefly, four colonies of each bacterium were inoculated into 5 mL Luria-Bertani (LB) broth medium at 37°C for 4 to 6 h. The cells were washed with sterile saline (0.9% NaCl) twice and seeded in a single well of a 96-well plate at the cell density of 10^5 CFU/well. Subsequently, 180 μL/well of fresh Mueller-Hinton broth (MHB) was added to the plate. Different concentrations of each peptide and reference antibiotics were serially diluted in 10 μL of MHB and added to each well. The plate was incubated at 37°C for 6 h. Cation-adjusted MH broth (CAMHB) was used to culture E. faecalis. Subsequently, 10 μL of the coloring reagent was added, and cells were incubated at 37°C for 2 h. UV absorbance was measured for each well at 450 nm, using a microplate spectrophotometer (xMark spectrophotometer; Bio-Rad, Hercules, CA, United States). MIC values were determined when the difference in the optical density (OD) between treatments and blanks (media and coloring reagent only) decreased to < 0.05. Experiments were conducted in triplicate. […] The pH conditions were achieved by using acetic acid (Sigma Aldrich).

[3] = system: Bacillus cereus ATCC 10876; experiment: microbe, parasite or virus in culture; format: cell-based; conditions: B. cereus ATCC 10876, MHB, 37°C 6 h + 2 h, triplicate
Protocol: as §4

[4] = system: Staphylococcus aureus ATCC 6538; experiment: microbe, parasite or virus in culture; format: cell-based; conditions: S. aureus ATCC 6538, MHB, 37°C 6 h + 2 h, triplicate
Protocol: as §4

[5] = system: Pseudomonas aeruginosa ATCC 27853; experiment: microbe, parasite or virus in culture; format: cell-based; conditions: P. aeruginosa ATCC 27853, MHB, 37°C 6 h + 2 h, triplicate
Protocol: as §4

[6] = system: Enterococcus faecalis ATCC 29212; experiment: microbe, parasite or virus in culture; format: cell-based; conditions: E. faecalis ATCC 29212, CAMHB, 37°C 6 h + 2 h, triplicate
Protocol: as §4

[7] = system: Salmonella typhimurium ATCC 14028; experiment: microbe, parasite or virus in culture; format: cell-based; conditions: S. typhimurium ATCC 14028, MHB, 37°C 6 h + 2 h, triplicate
Protocol: as §4

[8] = Escherichia coli, ATCC25922, read-out: MIC
[9] = Bacillus cereus, ATCC10876, read-out: MIC
[10] = Staphylococcus aureus, ATCC6538, read-out: MIC

Triton X-100 [reference compound]
Cell viability ± SD (MCF7): 11.4 ± 0.4% | Cell viability ± SD (HEK293T): 11.6 ± 2.5% | Cell viability ± SD [1]: 8.2 ± 0.4%

Nisin
MIC [2]: > 32(9.54) μg/mL | MIC [3]: 32 (9.54) μg/mL | MIC [4]: 15 (4.47) μg/mL

gentamicin sulfate [Gentamycin, reference compound]
MIC [5]: 1 (2.09) μg/mL | MIC [2]: 1 (2.09) μg/mL | MIC [6]: 5 (10.45) μg/mL | MIC [7]: 1 (2.09) μg/mL | MIC [3]: 1 (2.09) μg/mL | MIC [4]: 1 (2.09) μg/mL

CN[C@H](CC(C)C)C(=O)N[C@H]1C(=O)N[C@@H](CC(N)=O)C(=O)N[C@H]2C(=O)N[C@H]3C(=O)N[C@H](C(=O)N[C@H](C(=O)O)c4cc(O)cc(O)c4-c4cc3ccc4O)[C@H](O)c3ccc(c(Cl)c3)Oc3cc2cc(c3O[C@@H]2O[C@H](CO)[C@@H](O)[C@H](O)[C@H]2O[C@H]2C[C@](C)(N)[C@H](O)[C@H](C)O2)Oc2ccc(cc2Cl)[C@H]1O [Vancomycin]
MIC [2, 8]: 32 µg/mL | MIC [3, 9]: 4 µg/mL | MIC [4, 10]: 5 µg/mL

CC1(C)S[C@@H]2[C@H](NC(=O)[C@H](N)c3ccccc3)C(=O)N2[C@H]1C(=O)O [Ampicillin, reference compound]
MIC ([5]; Pseudomonas aeruginosa, ATCC27853, read-out: MIC): > 128 µg/mL | MIC [2, 8]: 1 µg/mL | MIC ([6]; Enterococcus faecalis, ATCC29212, read-out: MIC): 2 µg/mL | MIC ([7]; Salmonella enterica, read-out: MIC): 1 µg/mL | MIC [3, 9]: 16 µg/mL | MIC [4, 10]: 1 µg/mL
